Data taken from US7138361B2, “Herbicidal heterocycles” (E. I. du Pont de Nemours and Company, priority 2000, dated 2006).

How the values were obtained:
Format in all cases: in vivo
[1] = test system: barnyardgrass (Echinochloa crus-galli); test: Test B preemergence
Outline: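 Ratings on a 0 to 100 visual scale (100 complete control) compare treated plants with controls 13 to 15 days after application. Treatments were pre- or postemergence sprays of compound in non-phytotoxic solvent with surfactant.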

[2] = test system: Nightshade; test: Test C preemergence; conditions: Rate 500 g/ha, visual evaluation after 12 to 14 days
[3] = test system: velvetleaf (Abutilon theophrasti); test: Test C preemergence
Outline: (§1)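 Seeds are planted and treated before emergence; for the postemergence test, plants at 1- to 4-leaf stage (2–18 cm) receive the same formulation, a solvent blend containing surfactant. Plants stay in the greenhouse 12–14 days, then response is scored visually from 0 (none) to 100 (complete control).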

[4] = test system: morningglory (Ipomoea hederacea); test: Test C preemergence
Outline: as §1

[5] = test system: soybean (Glycine max); test: Test C preemergence
Outline: as §1

[6] = test system: giant foxtail (Setaria faberii); test: Test C preemergence
Outline: as §1

[7] = test system: corn (Zea mays); test: Test C preemergence; conditions: for Plant response rating, Corn: scale 0 to 100, 0 no effect, 100 complete control
Outline: as §1

[8] = test system: johnsongrass (Sorghum halepense); test: Test C preemergence
Outline: as §1

[9] = test system: kochia (Kochia scoparia); test: Test C preemergence
Outline: as §1

[10] = test system: lambsquarters (Chenopodium album); test: Test C preemergence
Outline: as §1

[11] = test system: yellow nutsedge (Cyperus esculentus); test: Test C preemergence
Outline: as §1

[12] = test system: pigweed (Amaranthus retroflexus); test: Test C preemergence
Outline: as §1

[13] = test system: woolly cupgrass (Eriochloa villosa); test: Test C preemergence
Outline: as §1

[14] = test system: cocklebur (Xanthium strumarium); test: Test C preemergence
Outline: as §1

[15] = test system: bermudagrass (Cynodon dactylon); test: Test C preemergence
Outline: as §1

[16] = test system: crabgrass (Digitaria sanguinalis); test: Test C preemergence
Outline: as §1

[17] = test system: goosegrass (Eleusine indica); test: Test C preemergence
Outline: as §1

[18] = test system: Nightshade; test: Test C preemergence
[19] = test system: Sunflower; test: Test C preemergence; conditions: Rate 500 g/ha, visual evaluation after 12 to 14 days
[20] = Rate 125 g/ha, scale 0 to 100, 0 no effect, 100 complete control
[21] = preemergence, Rate 62 g/ha, scale 0 to 100
[22] = preemergence, Rate 500 g/ha, visual evaluation after 12 to 14 days
[23] = preemergence, Rate 250 g/ha, scale 0 to 100, 0 no effect, 100 complete control

Structure (SMILES): CCC(C)c1ccn(C2OCN(c3cccc(OC(F)F)c3)C2=O)n1 (stereo not drawn) [Compound 134]
- Plant response rating, Barnyardgrass ([1]; Preemergence, Rate 500 g/ha, scale 0 to 100, 0 no effect, 100 complete control): 100
- Plant response rating, Barnyardgrass ([1]; preemergence, Rate 125 g/ha, scale of 0 to 100 where 0 is no effect and 100 is complete control, 13 to 15 days): 100
- Plant response rating (0 to 100), Nightshade [2]: 90
- Plant response rating, Velvetleaf [3, 20]: 20
- Plant response rating, Velvetleaf [3, 21]: 20
- Plant response rating (0 to 100), Velvetleaf [3, 22]: 20
- Plant response rating, Velvetleaf [3, 23]: 20
- Plant response rating, Morningglory [4, 20]: 0
- Plant response rating, Morningglory [4, 21]: 0
- Plant response rating (0 to 100), Morningglory [4, 22]: 0
- Plant response rating, Morningglory [4, 23]: 0
- Plant response rating, Soybean [5, 20]: 0
- Plant response rating, Soybean [5, 21]: 0
- Plant response rating (0 to 100), Soybean [5, 22]: 20
- Plant response rating, Soybean [5, 23]: 0
- Plant response rating, Foxtail, Giant [6, 20]: 100
- Plant response rating, Foxtail, Giant [6, 21]: 90
- Plant response rating (0 to 100), Foxtail, Giant [6, 22]: 100
- Plant response rating, Foxtail, Giant [6, 23]: 100
- Plant response rating, Corn ([7]; Rate 125 g/ha): 20
- Plant response rating (0 to 100), Corn [7, 22]: 100
- Plant response rating, Corn ([7]; preemergence, Rate 250 g/ha): 100
- Plant response rating, Johnsongrass [8, 20]: 100
- Plant response rating, Johnsongrass [8, 21]: 100
- Plant response rating (0 to 100), Johnsongrass [8, 22]: 100
- Plant response rating, Johnsongrass [8, 23]: 100
- Plant response rating, Kochia [9, 20]: 100
- Plant response rating, Kochia [9, 21]: 100
- Plant response rating (0 to 100), Kochia [9, 22]: 100
- Plant response rating, Kochia [9, 23]: 100
- Plant response rating, Lambsquarters [10, 20]: 100
- Plant response rating, Lambsquarters [10, 21]: 100
- Plant response rating (0 to 100), Lambsquarters [10, 22]: 100
- Plant response rating, Lambsquarters [10, 23]: 100
- Plant response rating, Nutsedge [11, 20]: 70
- Plant response rating, Nutsedge [11, 21]: 60
- Plant response rating (0 to 100), Nutsedge [11, 22]: 100
- Plant response rating, Nutsedge [11, 23]: 90
- Plant response rating, Pigweed [12, 20]: 100
- Plant response rating, Pigweed [12, 21]: 100
- Plant response rating (0 to 100), Pigweed [12, 22]: 100
- Plant response rating, Pigweed [12, 23]: 100
- Plant response rating, Cupgrass, Woolly [13, 20]: 100
- Plant response rating, Cupgrass, Woolly [13, 21]: 100
- Plant response rating (0 to 100), Cupgrass, Woolly [13, 22]: 100
- Plant response rating, Cupgrass, Woolly [13, 23]: 100
- Plant response rating, Cocklebur [14, 20]: 0
- Plant response rating, Cocklebur [14, 21]: 0
- Plant response rating (0 to 100), Cocklebur [14, 22]: 0
- Plant response rating, Cocklebur [14, 23]: 0
- Plant response rating, Bermudagrass [15, 20]: 100
- Plant response rating, Bermudagrass [15, 21]: 100
- Plant response rating (0 to 100 where 0 is no effect and 100 is complete control), Bermudagrass [15, 22]: 100
- Plant response rating, Bermudagrass [15, 23]: 100
- Plant response rating, Crabgrass [16, 20]: 100
- Plant response rating, Crabgrass [16, 21]: 100
- Plant response rating (0 to 100), Crabgrass [16, 22]: 100
- Plant response rating, Crabgrass [16, 23]: 100
- Plant response rating, Goosegrass [17, 20]: 100
- Plant response rating, Goosegrass [17, 21]: 100
- Plant response rating (0 to 100), Goosegrass [17, 22]: 100
- Plant response rating, Goosegrass [17, 23]: 100
- Plant response rating, Nightshade ([18]; Rate 62 g/ha, scale 0 to 100): 0
- Plant response rating, Nightshade [18, 20]: 10
- Plant response rating, Nightshade ([18]; Rate 250 g/ha, scale 0 to 100, 0 no effect, 100 complete control): 30
- Plant response rating (0 to 100), Sunflower [19]: 20
